{"source": "paper PMC7559923", "about": "“In Vitro Modeling of Bradykinin-Mediated Angioedema States” (Pharmaceuticals, 2020)", "key": {"B1 receptor": {"tested_on": "B1 receptor", "conditions": "cited from earlier work", "source_text": "(§1) (Figure 2). Thus, the EIA signal may be contaminated with the inert metabolite generated by aminopeptidase P, a significant peptidase that inactivates BK [17]. One way out is to couple the EIA quantification with chromatographic separation of kinins, such as HPLC [29]."}, "B2 receptor": {"tested_on": "B2 receptor", "conditions": "cited from earlier work", "source_text": "as §1"}, "[1]": {"conditions": "BK added ex vivo to plasma of healthy subjects who took two daily doses of enalapril maleate; cited from earlier work"}, "[2]": {"experiment": "Degradation of BK by intact adherent HUVECs (Phoenix Pharmaceuticals BK EIA)", "experimental": "Samples were incubated at 37 °C under agitation for the indicated time periods before extraction and EIA determination of BK. The number of replicated from different healthy donors is indicated by “n”. […] Reproduced from.\n(§2) ACE activity in serum or blood plasma corresponds, in healthy individuals, to a form of the protein shed from the vascular endothelial cells in an apparently regulated manner. ACE, membrane arginine carboxypeptidase (carboxypeptidase M), aminopeptidase P and other potential kininases are expressed at the surface of vascular endothelial cells. Primary cultures of human umbilical vein endothelial cells (HUVECs) are a standard model for which significant information is available."}, "[3]": {"conditions": "BK 10 ng/mL, adherent HUVECs at 37 °C without serum, radioimmunoassay; cited from earlier work", "source_text": "as §2, with “available. These cells express at their surface a high number of ACE molecule, as judged from the saturable binding of [^3 ...” for “available.”"}, "[4]": {"conditions": "cited from earlier work", "experimental": "Samples were incubated at 37 °C under agitation for the indicated time periods before extraction and EIA determination of BK. The number of replicated from different healthy donors is indicated by “n”. […] Reproduced from. (B) Catabolism of BK ... || One stored plasma sample that was received in our laboratory was partly clotted and excluded from our previous studies. […] Secondly, the par ..."}, "ACE": {"target": "ACE", "parameters": "method as in 2 sources, one per row (each row's own in cited_ref): ref 35 = [35]; PMID 18201802; doi:10.1016/j.peptides.2007.12.004; 35. Morissette G. Couture J.P. Désormeaux A. Adam A. Marceau F. Lack of direct interaction between enalaprilat and the kinin B 1 receptors Peptides 2008 29 606 612 10.1016/j.peptides.2007.12.004 18201 ||| ref 36 = [36]; PMID 20452384; doi:10.1016/j.peptides.2010.04.027; 36. Koumbadinga G.A. Bawolak M.T. Marceau E. Adam A. Gera L. Marceau F. A ligand-based approach to investigate the expression and function of angiotensin converting enzyme in intact human umbilical ve", "conditions": "cited from earlier work", "description": "Primary cultures of human umbilical vein endothelial cells (HUVECs) are a standard model for which significant information is available. These cells express at their surface a high number of ACE molecule, as judged from the saturable binding of [^3 ..."}, "[5]": {"tested_on": "polyclonal anti-BK antibodies", "conditions": "cited from earlier work; for cross-reactivity in the BK EIA as stated by the manufacturer: ref Phoenix Pharmaceuticals", "source_text": "BK and related peptides are formed locally close to their site of action (autacoids). They are extremely unstable and prone to artefactual formation when blood or tissues are sampled (for instance, following contact of blood with glass). Therefore, measuring kinins in venous blood is not really informative, contrasting with many useful peptide hormone dosages applied in endocrinology. A further challenge in concentration determination is that the BK sequence is embedded in that of precursor kininogens, with necessary separation if an antibody-based detection system is considered. Blais e ... || Figure 2 Cross-reactivity of the BK EIA with selected kinin sequences. […] Reproduce ..."}, "human B1 receptor": {"tested_on": "human B1 receptor", "conditions": "cited from earlier work", "source_text": "The present paper reviews recent literature, contains some original results, and aims to illustrate the role of the analytical biochemistry of BK-related kinins in the understanding of angioedema (AE) mediated by kinins. The kallikrein –kinin system is made of many molecular participants present or secreted in blood plasma or present at the vascular endothelial surface (Figure 1). There are two different precursors of kinins, low and high molecular weight kininogens (LK, HK; abbreviations are defined in Table 1). Those proteins are encoded by alternative splicing of a single gene ..."}, "[6]": {"tested_on": "polyclonal anti-BK antibodies", "experiment": "Cross-reactivity of the BK EIA (Phoenix Pharmaceuticals) with kinin sequences", "assay_type": "binding", "conditions": "Figure 2 (reproduced in part from ref 12)", "source_text": "BK and related peptides are formed locally close to their site of action (autacoids). They are extremely unstable and prone to artefactual formation when blood or tissues are sampled (for instance, following contact of blood with glass). Therefore, measuring kinins in venous blood is not really informative, contrasting with many useful peptide hormone dosages applied in endocrinology. A further challenge in concentration determination is that the BK sequence is embedded in that of precursor kininogens, with necessary separation if an antibody-based detection system is considered. Blais et al. have reviewed these pitfalls and discussed extraction procedures and recovery in the context of the currently applied immunoassays. Professor A. Adam and co-workers developed separate competitive chemiluminescence enzyme immunoassays (EIAs) for BK and des-Arg^9-BK based on digoxygenin-conjugated peptides. Now several commercially available kits are being used, such as that from Phoenix Pharmaceuticals for BK (96-well plate format), and these have the advantage of world-wide reproducibility. The sensitivity of EIAs is excellent. […]\n(Figure 2). […] One way out is to couple the EIA quantification with chromatographic separation of kinins, such as HPLC [29]. […]"}}, "note": "Ends that are not written are not given here. * marks the point of attachment. Biotin = O=C1N[C@H]2[C@H](CS[C@H]2CCCCC(=O)*)N1"}
{"compound": "BK1–7: BK fragment produced by ACE (RPPGFSP; Bradykinin; UniProt P01042 381-387, looked up, fragment)", "values": [{"measurement": "activity on B1 receptors", "setting": "B1 receptor", "result": "inactive"}, {"measurement": "activity on B2 receptors", "setting": "B2 receptor", "result": "inactive"}]}
{"compound": "RPPGFSPFR [BK, bradykinin]", "values": [{"measurement": "increase of BK t1/2 relative to the pre-treatment value", "setting": "[1]", "result": "~ 5 fold"}, {"measurement": "stability in wells without cells (nude plastic)", "setting": "[2]", "result": "stable"}, {"measurement": "half-life at 10 nM", "setting": "[2]; human, pH 7.4", "result": 12.3, "unit": "min"}, {"measurement": "half-life", "setting": "[3]", "result": "about 50 min"}, {"measurement": "time in which BK was completely cleared", "setting": "[4]", "result": 5, "unit": "min"}, {"measurement": "half-life (first order decay)", "setting": "[4]; human", "result": 7.1, "unit": "min"}, {"measurement": "t1/2", "setting": "[4]; human", "result": 0.567, "unit": "min"}]}
{"compound": "C[C@H](N[C@@H](CCc1ccccc1)C(=O)O)C(=O)N1CCC[C@H]1C(=O)O", "note": "[[^3H]enalaprilat, enalaprilat]", "values": [{"measurement": "Kd", "setting": "ACE; saturable binding to intact HUVECs", "result": 0.23, "unit": "nM"}]}
{"compound": "lysyl-bradykinin [Lys-BK]", "values": [{"measurement": "displacement of [3H]enalaprilat binding", "setting": "ACE; HUVECs", "result": "displaced"}, {"measurement": "cross-reactivity in the BK EIA as stated by the manufacturer", "setting": "[5]", "result": "fully cross-reacts"}]}
{"compound": "des-Arg^9-BK (RPPGFSPF; Bradykinin; UniProt P01042 381-388, looked up, fragment) [BK metabolite produced by arginine carboxypeptidases (kininase I)]", "values": [{"measurement": "affinity for the human form of the B1 receptor", "setting": "human B1 receptor", "result": "very weak affinity"}, {"measurement": "cross-reactivity in the BK EIA as stated by the manufacturer", "setting": "[5]", "result": "not"}]}
{"compound": "D-Arg-BK-Arg-Arg", "values": [{"measurement": "cross-reactivity in the BK EIA vs. BK", "setting": "[6]", "result": "loses much affinity"}, {"measurement": "cross-reactivity in the BK EIA vs. BK", "setting": "[6]; listed as Arg-BK-Arg-Arg", "result": "partial reactivity"}]}
{"compound": "Lys-des-Arg^9-BK", "values": [{"measurement": "affinity for the human form of the B1 receptor", "setting": "human B1 receptor", "result": "subnanomolar affinity"}, {"measurement": "cross-reactivity in the BK EIA", "setting": "[5]; Phoenix Pharmaceuticals BK EIA", "result": "do not cross react at all"}]}
{"compound": "biotinyl-BK (Biotin-RPPGFSPFR; UniProt P01042 381-389, looked up) [biotin-labelled BK tracer]", "values": [{"measurement": "cross-reactivity in the BK EIA as stated by the manufacturer", "setting": "[5]", "result": "fully cross-reacts"}]}
{"compound": "BK1–5: BK fragment produced by two cycles of ACE activity, more stable than most kinins (RPPGF; Bradykinin; UniProt P01042 381-385, looked up, fragment)", "values": [{"measurement": "activity on B1 receptors", "setting": "B1 receptor", "result": "inactive"}, {"measurement": "activity on B2 receptors", "setting": "B2 receptor", "result": "inactive"}]}
